The source of these data is patent US7605178B2, “Therapeutic compounds” (Allergan, Inc., priority 2006, dated 2009).

Structures are written as SMILES. pEC50, pKi: −log10 of the molar value.

The target in data set [1] is T1, EP4 (Homo sapiens, UniProt P35408). The experiment in a line: EP4 flipr. Format: cell-based. An excerpt: (§1) U.S. patent application Ser. No. 11/553,143, filed on Oct. 26, 2006, incorporated by reference herein, describes the methods used to obtain the in vitro data in the table below.
The target of data set [2] is T2, EP2 (Homo sapiens, UniProt P43116). The experiment in a line: EP2 cAMP. The data set is classed as cell-based.
Description: as §1

Data set [3] deals with T2, EP2. Description: EP2 flipr. The data set is classed as cell-based.
Description: as §1

For the next data set, the target named is T3, hTP (Homo sapiens, UniProt P21731).
T3 sequence (P21731 1-343): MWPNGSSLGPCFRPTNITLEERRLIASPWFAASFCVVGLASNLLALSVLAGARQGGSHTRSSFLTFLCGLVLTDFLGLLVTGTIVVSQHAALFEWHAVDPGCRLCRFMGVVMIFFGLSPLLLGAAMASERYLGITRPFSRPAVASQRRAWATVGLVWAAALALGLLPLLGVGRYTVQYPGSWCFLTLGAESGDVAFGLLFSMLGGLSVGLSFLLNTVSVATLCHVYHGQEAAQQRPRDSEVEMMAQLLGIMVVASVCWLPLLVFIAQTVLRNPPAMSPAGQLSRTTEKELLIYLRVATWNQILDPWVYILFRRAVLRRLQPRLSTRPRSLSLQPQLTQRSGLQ
The experiment in a line: Other receptors: hTP functional EC50. Format: cell-based.
Description: as §1

The target of data set [4] is T2, EP2. Description: EP2 binding (Ki).
Description: as §1

The target in a further data set is T4, hEP3A (Homo sapiens, UniProt P43115).
T4 sequence (P43115 1-390): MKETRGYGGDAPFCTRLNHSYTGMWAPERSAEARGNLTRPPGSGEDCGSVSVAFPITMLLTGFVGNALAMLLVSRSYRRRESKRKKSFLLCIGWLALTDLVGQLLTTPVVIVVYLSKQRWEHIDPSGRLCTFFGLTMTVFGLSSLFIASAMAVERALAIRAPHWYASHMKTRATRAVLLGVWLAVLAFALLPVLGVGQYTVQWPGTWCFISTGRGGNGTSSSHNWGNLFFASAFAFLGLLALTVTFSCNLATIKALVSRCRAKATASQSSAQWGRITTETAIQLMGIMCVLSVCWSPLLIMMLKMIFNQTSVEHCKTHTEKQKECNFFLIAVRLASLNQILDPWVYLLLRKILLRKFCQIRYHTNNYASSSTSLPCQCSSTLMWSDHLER
The experiment in a line: Other receptors: hEP3A functional EC50. The data set is classed as cell-based.
Description: as §1

For data set [5], the target named is T1, EP4. The experiment in a line: EP4 binding (KI).
Description: as §1

For the next data set, the target named is hIP (Homo sapiens, UniProt P43119). Description: Other receptors: hIP functional EC50. The data set is classed as cell-based.
Description: as §1

A further data set deals with T5, hDP (Homo sapiens, UniProt Q13258).
T5 sequence (Q13258 1-359): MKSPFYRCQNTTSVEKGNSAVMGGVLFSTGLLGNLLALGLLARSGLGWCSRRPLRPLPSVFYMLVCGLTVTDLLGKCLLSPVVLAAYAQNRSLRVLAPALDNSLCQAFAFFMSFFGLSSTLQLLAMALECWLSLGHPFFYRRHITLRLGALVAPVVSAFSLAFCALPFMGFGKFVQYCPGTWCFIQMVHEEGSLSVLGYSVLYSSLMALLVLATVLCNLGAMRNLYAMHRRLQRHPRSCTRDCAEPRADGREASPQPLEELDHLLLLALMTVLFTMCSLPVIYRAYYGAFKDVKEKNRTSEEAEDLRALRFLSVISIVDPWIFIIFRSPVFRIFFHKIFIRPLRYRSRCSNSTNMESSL
The experiment in a line: Other receptors: hDP functional EC50. Format: cell-based.
Description: as §1

Another data set deals with normotensive dogs. The experiment in a line: Intraocular pressure and ocular surface hyperemia in normotensive dogs. Format: in vivo. Particulars: 0.01%, once daily for 5 days. Here is the method:
(§2) U.S. Pat. No. 7,091,231 describes the methods used for these in vivo tests.
5-(3-((1R,2R,3R,5R)-5-chloro-2-((3,5-dichlorophenylthio)methyl)-3-hydroxycyclopentyl)propyl)-thiophene-2-carboxylic acid (20) was tested in normotensive dogs at 0.01%, dosing once daily for 5 days. The maximum intraocular pressure (IOP) decrease from baseline was 6.3 mmHg (35%) at 6 h; the maximum ocular surface hyperemia (OSH) score was 1.7 at 52 h.

In data set [6] the test system is laser-induced hypertensive monkeys. The experiment in a line: Intraocular pressure in laser-induced hypertensive monkeys. Conditions: 0.01%, one single day dose, at 24 h. The data set is classed as in vivo. Here is the method:
as §2
The composition and dosage regimen of In vivo example 1 was also tested in laser-induced hypertensive monkeys, using one single day dose. At 0.01%, the maximum IOP decrease from baseline was 13.9 mmHg (40%) at 24 h.

T2 sequence (P43116 whole entry): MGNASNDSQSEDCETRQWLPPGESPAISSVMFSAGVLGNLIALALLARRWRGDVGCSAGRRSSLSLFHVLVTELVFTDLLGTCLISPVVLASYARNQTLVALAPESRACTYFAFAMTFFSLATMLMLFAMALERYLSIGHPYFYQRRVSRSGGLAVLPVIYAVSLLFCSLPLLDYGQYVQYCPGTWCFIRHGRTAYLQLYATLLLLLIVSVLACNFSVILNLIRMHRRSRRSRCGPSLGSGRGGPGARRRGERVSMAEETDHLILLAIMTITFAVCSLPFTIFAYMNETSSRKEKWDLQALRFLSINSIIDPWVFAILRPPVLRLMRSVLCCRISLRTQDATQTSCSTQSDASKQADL
Sequence of hIP (P43119 whole entry): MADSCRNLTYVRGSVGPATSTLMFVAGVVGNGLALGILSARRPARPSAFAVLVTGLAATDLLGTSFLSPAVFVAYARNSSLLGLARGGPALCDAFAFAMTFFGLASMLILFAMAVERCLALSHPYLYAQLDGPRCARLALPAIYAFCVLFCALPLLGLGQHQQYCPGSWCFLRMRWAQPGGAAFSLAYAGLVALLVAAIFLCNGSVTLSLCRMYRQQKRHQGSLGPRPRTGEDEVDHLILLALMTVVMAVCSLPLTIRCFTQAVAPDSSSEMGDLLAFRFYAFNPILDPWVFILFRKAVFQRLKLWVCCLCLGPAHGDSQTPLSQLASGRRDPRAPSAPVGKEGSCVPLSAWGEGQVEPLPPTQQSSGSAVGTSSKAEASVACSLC
T1 sequence (P35408 whole entry): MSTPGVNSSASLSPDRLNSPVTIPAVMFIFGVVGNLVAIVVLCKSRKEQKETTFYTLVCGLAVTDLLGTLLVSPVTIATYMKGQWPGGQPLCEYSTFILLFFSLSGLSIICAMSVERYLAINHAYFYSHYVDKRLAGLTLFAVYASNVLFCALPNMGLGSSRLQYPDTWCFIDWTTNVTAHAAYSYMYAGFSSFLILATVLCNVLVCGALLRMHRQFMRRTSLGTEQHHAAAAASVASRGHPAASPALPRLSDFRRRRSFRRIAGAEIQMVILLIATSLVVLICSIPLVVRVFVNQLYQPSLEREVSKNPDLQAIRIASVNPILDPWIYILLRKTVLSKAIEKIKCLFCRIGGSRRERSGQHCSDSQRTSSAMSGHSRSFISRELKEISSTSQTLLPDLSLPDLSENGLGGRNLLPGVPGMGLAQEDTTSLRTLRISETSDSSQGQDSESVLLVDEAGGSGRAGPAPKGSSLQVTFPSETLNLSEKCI

For the compound `O=C(O)CCC/C=C\C[C@@H]1[C@@H](CNc2cc(Cl)cc(Cl)c2)[C@H](O)C[C@H]1Cl` [compound 11, (Z)-7-{(1R,2S,3R,5R)-5-Chloro-2-[(3,5-dichloro-phenylamino)-methyl]-3-hydroxy-cyclopentyl}-hept-5-enoic acid], the pEC50 at EP4 [1] is less than 5.00; at EP2 [2] it was 9.30; on EP2 [3], 6.87. Besides, the EC50 at hTP, on hEP3A and on hIP was more than 10000 nM in each case. In addition, the figures for the pKi on EP2 [4] and on EP4 [5] were 7.74 and 5.99, respectively.
Consider `O=C(O)CCC/C=C\C[C@@H]1[C@@H](CSc2cc(Cl)cc(Cl)c2)[C@H](O)C[C@H]1Cl` [compound 5, (Z)-7-[(1R,2R,3R,5R)-5-Chloro-2-(3,5-dichloro-phenylsulfanylmethyl)-3-hydroxy-cyclopentyl]-hept-5-enoic acid], for which the pEC50 was less than 5.00 at EP4 [1], 9.40 on EP2 [2] and 5.47 at EP2 [3]. For the same compound, the 50% effective concentration (EC50) was 1720 nM on hTP, more than 10000 nM at hDP, more than 10000 nM on hEP3A and more than 10000 nM at hIP. Also, the pKi was 7.66 on EP2 [4] and 6.42 on EP4 [5].
For the compound `CC(=O)N(C[C@@H]1[C@@H](C/C=C\CCCC(=O)O)[C@H](Cl)C[C@H]1O)c1cc(Cl)cc(Cl)c1` [compound 10, (Z)-7-((1R,2S,3R,5R)-2-{[Acetyl-(3,5-dichloro-phenyl)-amino]-methyl}-5-chloro-3-hydroxy-cyclopentyl)-hept-5-enoic acid], the values for the pEC50 at EP2 [2] and at EP2 [3] were 7.54 and 5.20, respectively. In addition, the EC50 on hTP is 2680 nM; on hIP, more than 10000 nM. Moreover, the figures for the pKi on EP2 [4] and at EP4 [5] were 5.68 and less than 5.00, respectively.
Consider `O=C(O)c1ccc(CCC[C@@H]2[C@@H](C[S+]([O-])c3cc(Cl)cc(Cl)c3)[C@H](O)C[C@H]2Cl)s1` (stereo partly drawn) [compound 22, 5-(3-((1R,2R,3R,5R)-5-chloro-2-((3,5-dichlorophenylsulfinyl)methyl)-3-hydroxycyclopentyl)propyl)-thiophene-2-carboxylic acid], for which the pEC50 on EP2 [2] was 9.40; at EP2 [3] it was 7.00. The compound further returned an EC50 on hTP of 4210 nM. Besides, the negative logarithm of the Ki (pKi) on EP2 [4] was 7.92; on EP4 [5] it was less than 5.00.
Turning to `O=C(O)c1ccc(CCC[C@@H]2[C@@H](CSc3cc(Cl)cc(Cl)c3)[C@H](O)C[C@H]2Cl)s1` [compound 20, 5-(3-((1R,2R,3R,5R)-5-chloro-2-((3,5-dichlorophenylthio)methyl)-3-hydroxycyclopentyl)propyl)-thiophene-2-carboxylic acid], the pEC50 on EP4 [1] is less than 5.00; on EP2 [2], 9.96; on EP2 [3], 7.23. Also, the “maximum intraocular pressure (IOP) decrease from baseline (percent)” value in the data set with normotensive dogs (at 6 h) turned out to be 35%. Besides, the “maximum ocular surface hyperemia (OSH) score” value in the data set on normotensive dogs (at 52 h) is 1.7. The pKi on EP2 [4] is 9.52; at EP4 [5] it was 6.08. Moreover, in data set [6], the “maximum IOP decrease from baseline” value worked out at 13.9 mmHg. Also, in [6], the “maximum IOP decrease from baseline (percent)” value was 40%.
As to `O=C(O)c1ccc(CCC[C@@H]2[C@@H](CNc3cc(Cl)cc(Cl)c3)[C@H](O)C[C@H]2Cl)s1` [compound 15, 5-(3-((1R,2S,3R,5R)-5-chloro-2-((3,5-dichlorophenylamino)methyl)-3-hydroxycyclopentyl)propyl)-thiophene-2-carboxylic acid], the pEC50 on EP2 [2] was 6.96; at EP2 [3], less than 5.00. Also, the pKi at EP2 [4] was 6.47.
In the case of `O=C(O)c1ccc(CCC[C@@H]2[C@@H](CSc3cc(F)cc(F)c3)[C@H](O)C[C@H]2Cl)s1` [compound 25, 5-(3-((1R,2R,3R,5R)-5-chloro-2-((3,5-difluorophenylthio)methyl)-3-hydroxycyclopentyl)propyl)-thiophene-2-carboxylic acid], the pEC50 was less than 5.00 on EP4 [1], 8.89 at EP2 [2] and 6.07 at EP2 [3]. In addition, the pKi at EP2 [4] was 8.05; at EP4 [5], 5.63.

In general, pEC50 refers to the negative decadic logarithm of the EC50, by convention in mol/L. For orientation: EC50 means the midpoint of the concentration-response curve. A higher EC50 goes with lower potency in that assay. What is called pKi is the Ki on a negative log10 scale, so that one unit is a factor of ten. A low value points to a large Ki.
